According to ChEMBL document CHEMBL3244013, “Central nervous system activity of a novel class of annelated 1,4-benzodiazepines, aminomethylene-2,4-dihydro-1H-imidazo[1,2-a][1,4]benzodiazepin-1-ones” (J Med Chem, 1977):

Key:
[1] = system: Mus musculus; assay: Anticonvulsant activity in po dosed CD-1 mouse assessed as protection against maximal electroshock-induced convulsion; type: functional; settings: CD-1, po
[2] = system: Mus musculus; assay: Induction of muscle relaxation in po dosed CD-1 mouse after 30 mins by rotary drum test; type: functional; settings: CD-1, po, 0.5 h
[3] = system: Mus musculus; assay: Acute toxicity in po dosed CD-1 mouse assessed as mortality after 24 hrs; type: organism-based; settings: in vivo
[4] = system: Mus musculus; assay: Potentiation of chlorprothixene-induced sedative effect in po dosed CD-1 mouse assessed as loss of righting reflex; type: functional; settings: CD-1, po
[5] = system: Mus musculus; assay: Anticonvulsant activity in po dosed CD-1 mouse assessed as protection against strychnine-induced convulsion after 30 mins; type: functional; settings: CD-1, po, 0.5 h
[6] = system: Mus musculus; assay: Potentiation of hexobarbital-induced sedative effect in po dosed CD-1 mouse assessed as loss of righting reflex after 30 secs; type: functional; settings: CD-1, po
[7] = system: Mus musculus; assay: Anticonvulsant activity in po dosed CD-1 mouse assessed as protection against pentylenetetrazole-induced convulsion; type: functional; settings: CD-1, po
[8] = system: Mus musculus; assay: Antianxiety activity in po dosed CD-1 mouse assessed as inhibition of foot shock-induced aggression after 30 mins relative to control; type: functional; settings: CD-1, po, 0.5 h

| Compound | ED50 [1] [mg/kg] | ED50 [2] [mg/kg] | ED50 [3] [mg/kg] | ED50 [4] [mg/kg] | ED50 [5] [mg/kg] | ED50 [6] [mg/kg] | ED50 [7] [mg/kg] | ED50 [8] [mg/kg] |
| --- | --- | --- | --- | --- | --- | --- | --- | --- |
| N/C=C1\N=C2CN=C(c3ccccc3)c3cc(Cl)ccc3N2C1=O | > 50 | > 50 | > 1000 | 4.3 | > 50 | 1.65 | 7.1 | – |
| CN/C=C1\N=C2CN=C(c3ccccc3)c3cc(Cl)ccc3N2C1=O | – | – | > 1000 | > 50 | > 50 | > 50 | – | 5.3 |
| CCN/C=C1\N=C2CN=C(c3ccccc3)c3cc(Cl)ccc3N2C1=O | 10 | 1.8 | > 1000 | > 10 | > 50 | 7.2 | 4 | 1.45 |
| CCCN/C=C1\NC2CN=C(c3ccccc3)c3cc(Cl)ccc3N2C1=O (centres undefined) | 4 | 2.8 | > 1000 | 2.6 | > 50 | 3.9 | 1.55 | 0.92 |
| CCCCN/C=C1\N=C2CN=C(c3ccccc3)c3cc(Cl)ccc3N2C1=O | 12.5 | 24 | > 1000 | 1.8 | 17 | 0.66 | 1.15 | 3.35 |
| CC(C)(C)N/C=C1\N=C2CN=C(c3ccccc3)c3cc(Cl)ccc3N2C1=O | 19 | 14.5 | > 1000 | 14 | > 50 | 5 | 3.25 | 1.1 |
| O=C1/C(=C/NC2CCCCC2)N=C2CN=C(c3ccccc3)c3cc(Cl)ccc3N12 | 8.5 | – | > 1000 | 6.2 | 15 | 8.3 | 2.35 | 1.4 |
| O=C1/C(=C/NCCO)N=C2CN=C(c3ccccc3)c3cc(Cl)ccc3N12 | 9.5 | 2.6 | > 1000 | – | 16 | 3.6 | – | 1.5 |
| CCN(CC)CCN/C=C1\N=C2CN=C(c3ccccc3)c3cc(Cl)ccc3N2C1=O | > 50 | > 50 | > 1000 | > 50 | > 50 | > 50 | 16 | > 20 |
| CN(C)/C=C1\N=C2CN=C(c3ccccc3)c3cc(Cl)ccc3N2C1=O | 42 | > 50 | > 1000 | > 50 | > 50 | > 50 | 5 | 14 |
| CN(C)CCN(C)/C=C1\N=C2CN=C(c3ccccc3)c3cc(Cl)ccc3N2C1=O | – | > 50 | > 1000 | > 50 | > 50 | > 50 | – | – |
| CCN/C=C1\N=C2CN=C(c3ccccc3Cl)c3cc(Cl)ccc3N2C1=O | 18 | 11.5 | > 1000 | 9.6 | 25 | 0.27 | 0.39 | 1 |
| CCCN/C=C1\N=C2CN=C(c3ccccc3Cl)c3cc(Cl)ccc3N2C1=O | > 30 | 8 | > 1000 | 5.6 | > 25 | 0.06 | 1 | 2.4 |
| O=C1/C(=C/N2CCOCC2)N=C2CN=C(c3ccccc3)c3cc(Cl)ccc3N12 | 7 | 29 | > 1000 | 20.3 | > 50 | > 50 | 2.3 | 2.4 |
| O=C1/C(=C/N2CCNCC2)N=C2CN=C(c3ccccc3)c3cc(Cl)ccc3N12 | > 50 | > 50 | > 1000 | 23 | > 50 | 7.5 | 1.95 | > 20 |
| CN1CCN(/C=C2\N=C3CN=C(c4ccccc4)c4cc(Cl)ccc4N3C2=O)CC1 | 2.1 | 4.2 | > 1000 | 4.6 | 7.1 | 4.9 | 0.9 | 2.65 |
| CCN1CCN(/C=C2\N=C3CN=C(c4ccccc4)c4cc(Cl)ccc4N3C2=O)CC1 | 2.2 | 1.6 | > 1000 | 5 | 5.5 | 1.1 | 0.48 | 0.94 |
| CCCN1CCN(/C=C2\N=C3CN=C(c4ccccc4)c4cc(Cl)ccc4N3C2=O)CC1 | 2.7 | 1.1 | > 1000 | 3.2 | 6.4 | 3.6 | 1 | 1.3 |
| CCCCN1CCN(/C=C2\N=C3CN=C(c4ccccc4)c4cc(Cl)ccc4N3C2=O)CC1 | 20.5 | 9 | > 1000 | > 50 | 24 | 44 | 2 | 1.5 |
| C=CCN1CCN(/C=C2\N=C3CN=C(c4ccccc4)c4cc(Cl)ccc4N3C2=O)CC1 | 13.5 | 13 | > 1000 | 18 | > 50 | 25 | 21 | 2.3 |
| O=C1/C(=C/N2CCN(CC3CC3)CC2)N=C2CN=C(c3ccccc3)c3cc(Cl)ccc3N12 | 10.5 | 6.2 | > 1000 | 25 | 30 | 30 | 3.5 | 4.65 |
| O=CN1CCN(/C=C2\N=C3CN=C(c4ccccc4)c4cc(Cl)ccc4N3C2=O)CC1 | – | – | > 1000 | > 50 | – | – | – | > 20 |
| O=C1/C(=C/N2CCCCC2)N=C2CN=C(c3ccccc3)c3cc(Cl)ccc3N12 | > 50 | – | > 1000 | > 50 | > 50 | 1 | 16 | > 20 |
| CN1CCCC/C1=C1\N=C2CN=C(c3ccccc3)c3cc(Cl)ccc3N2C1=O | > 50 | > 50 | > 1000 | – | – | – | – | 20 |
| O=C1/C(=C/c2ccccc2)N=C2CN=C(c3ccccc3)c3cc(Cl)ccc3N12 | – | – | > 1000 | – | > 50 | > 50 | > 50 | – |
| CN(C)c1ccc(/C=C2\N=C3CN=C(c4ccccc4)c4cc(Cl)ccc4N3C2=O)cc1 | – | > 50 | > 1000 | – | > 50 | > 50 | > 50 | > 20 |
| CNC1=Nc2ccc(Cl)cc2C(c2ccccc2)=[N+]([O-])C1 [CHLORDIAZEPOXIDE] | 8 | 6.8 | – | 4 | 5 | 64 | 1.9 | 7 |
